From US20260022142A1, “MACROCYCLIC IMMUNOMODULATORS” (Bristol-Myers Squibb Company, priority 2022, published 2026)
pIC50: −log10 of the molar value. Bridge positions count the residues as written; N and C are the ends. Square brackets hold non-standard residues; d marks the D form. Peptide text beside a SMILES is read from it. * marks the point of attachment. Phe(4-CONH2) = NC(=O)c1ccc(C[C@H](N)C(=O)O)cc1; Phe(4-COOH) = N[C@@H](Cc1ccc(C(=O)O)cc1)C(=O)O; Bip = N[C@@H](Cc1ccc(-c2ccccc2)cc1)C(=O)O; Phe(3-Me) = Cc1cccc(C[C@H](N)C(=O)O)c1; 3Pal = N[C@@H](Cc1cccnc1)C(=O)O; 4Pal = N[C@@H](Cc1ccncc1)C(=O)O; Cha = N[C@@H](CC1CCCCC1)C(=O)O; Cit = NC(=O)NCCC[C@H](N)C(=O)O; Carboxymethyl = O=C(O)C*; Orn = NCCC[C@H](N)C(=O)O; Aun = NCCCCCCCCCCC(=O)O; Dab = NCC[C@H](N)C(=O)O

Target: T1, PD-1/PD-L1 interaction (PE-labeled human PD-L1-Ig binding to Jurkat cell line over-expressing human PD-1) (Homo sapiens, UniProt Q15116)
T1 construct: expressed in transfected cells; host or cells: Jurkat
T1 sequence (Q15116 25-288): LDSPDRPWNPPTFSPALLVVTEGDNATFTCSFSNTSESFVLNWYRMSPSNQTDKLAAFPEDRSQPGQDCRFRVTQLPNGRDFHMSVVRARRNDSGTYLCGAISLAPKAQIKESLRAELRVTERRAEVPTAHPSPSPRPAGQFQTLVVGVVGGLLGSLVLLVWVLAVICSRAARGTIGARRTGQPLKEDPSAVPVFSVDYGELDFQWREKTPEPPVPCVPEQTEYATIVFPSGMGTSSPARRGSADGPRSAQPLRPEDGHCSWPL
Assay: Jurkat-PD-1 Cell Binding High-Content Screening Assay (CBA)
Type: cell-based
Details: Jurkat cell line over-expressing human PD-1; PE-labeled PD-L1-Ig 20 nM final; read-out: Jurkat hPD1-PDL1 IC50
How it was run: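 Read-out is high-content imaging of cell-bound phycoerythrin-tagged PD-L1-Ig on fixed, Hoechst-counterstained Jurkat cells that over-express human PD-1. Compound exposure lasts 2 h at 37° C before the labeled ligand (20 nM final) is added for a further hour.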

| SMILES | pIC50 |
| --- | --- |
| Cc1cccc(C[C@@H]2NC(=O)[C@H](CC(=O)O)NC(=O)[C@H](Cc3ccc(OCC(=O)O)cc3)NC(=O)[C@H](CCCNC(=N)N)NC(=O)CSC[C@@H](C(=O)N[C@@H](CCN)C(=O)NCCCCCCCCCCC(=O)O)NC(=O)[C@@H](CCC(N)=O)NC(=O)[C@H](C(C)C)NC(=O)[C@H](CC3CCCCC3)NC(=O)[C@H](CCN)NC(=O)[C@@H](CC(C)C)NC(=O)[C@H](CCN)NC(=O)[C@H](CCCNC(N)=O)NC(=O)[C@H](Cc3ccc(-c4ccccc4)cc3)NC(=O)[C@H](C(C)C)NC2=O)c1 [Compound 2820] ({CH2CO}-RY(Carboxymethyl)D[Phe(3-Me)]V[Bip][Cit][Dab][dL][Dab][Cha]V[dQ]C[Dab][Aun]-OH; thioether N-14) | 7.62 |
| Cc1cccc(C[C@@H]2NC(=O)[C@H](CC(=O)O)NC(=O)[C@H](Cc3ccc(OCC(=O)O)cc3)NC(=O)[C@H](CCN)NC(=O)CSC[C@@H](C(=O)N[C@@H](CCN)C(=O)NCCCCCCCCCCC(=O)O)NC(=O)[C@H]([C@@H](C)O)NC(=O)[C@H](C(C)C)NC(=O)[C@H](CC3CCCCC3)NC(=O)[C@H](CCN)NC(=O)[C@@H](CC(C)C)NC(=O)[C@H](CCCN)NC(=O)[C@H](CCCNC(N)=O)NC(=O)[C@H](Cc3ccc(-c4ccccc4)cc3)NC(=O)[C@H](C(C)C)NC2=O)c1 [Compound 2821] ({CH2CO}-[Dab]Y(Carboxymethyl)D[Phe(3-Me)]V[Bip][Cit][Orn][dL][Dab][Cha]VTC[Dab][Aun]-OH; thioether N-14) | 7.96 |
| Cc1cccc(C[C@@H]2NC(=O)[C@H](CC(=O)O)NC(=O)[C@H](Cc3ccc(OCC(=O)O)cc3)NC(=O)[C@H](CCCN)NC(=O)CSC[C@@H](C(=O)N[C@@H](CCN)C(=O)NCCCCCCCCCCC(=O)O)NC(=O)[C@H]([C@@H](C)O)NC(=O)[C@H](C(C)C)NC(=O)[C@H](CC3CCCCC3)NC(=O)[C@H](CCN)NC(=O)[C@@H](CC(C)C)NC(=O)[C@H](CCCN)NC(=O)[C@H](CCCNC(N)=O)NC(=O)[C@H](Cc3ccc(-c4ccccc4)cc3)NC(=O)[C@H](C(C)C)NC2=O)c1 [Compound 2822] ({CH2CO}-[Orn]Y(Carboxymethyl)D[Phe(3-Me)]V[Bip][Cit][Orn][dL][Dab][Cha]VTC[Dab][Aun]-OH; thioether N-14) | 7.66 |
| Cc1cccc(C[C@@H]2NC(=O)[C@H](CC(=O)O)NC(=O)[C@H](Cc3ccc(OCC(=O)O)cc3)NC(=O)[C@H](CCCCN)NC(=O)CSC[C@@H](C(=O)N[C@@H](CCN)C(=O)NCCCCCCCCCCC(=O)O)NC(=O)[C@H]([C@@H](C)O)NC(=O)[C@H](C(C)C)NC(=O)[C@H](CC3CCCCC3)NC(=O)[C@H](CCN)NC(=O)[C@@H](CC(C)C)NC(=O)[C@H](CCCN)NC(=O)[C@H](CCCNC(N)=O)NC(=O)[C@H](Cc3ccc(-c4ccccc4)cc3)NC(=O)[C@H](C(C)C)NC2=O)c1 [Compound 2823] ({CH2CO}-KY(Carboxymethyl)D[Phe(3-Me)]V[Bip][Cit][Orn][dL][Dab][Cha]VTC[Dab][Aun]-OH; thioether N-14) | 7.79 |
| Cc1cccc(C[C@@H]2NC(=O)[C@H](CC(=O)O)NC(=O)[C@H](Cc3ccc(OCC(=O)O)cc3)NC(=O)[C@H](CCCNC(N)=O)NC(=O)CSC[C@@H](C(=O)N[C@@H](CCN)C(=O)NCCCCCCCCCCC(=O)O)NC(=O)[C@H]([C@@H](C)O)NC(=O)[C@H](C(C)C)NC(=O)[C@H](CC3CCCCC3)NC(=O)[C@H](CCN)NC(=O)[C@@H](CC(C)C)NC(=O)[C@H](CCCN)NC(=O)[C@H](CCCNC(N)=O)NC(=O)[C@H](Cc3ccc(-c4ccccc4)cc3)NC(=O)[C@H](C(C)C)NC2=O)c1 [Compound 2824] ({CH2CO}-[Cit]Y(Carboxymethyl)D[Phe(3-Me)]V[Bip][Cit][Orn][dL][Dab][Cha]VTC[Dab][Aun]-OH; thioether N-14) | 7.59 |
| Cc1cccc(C[C@@H]2NC(=O)[C@H](CC(=O)O)NC(=O)[C@H](Cc3ccc(OCC(=O)O)cc3)NC(=O)[C@H](Cc3ccccc3)NC(=O)CSC[C@@H](C(=O)N[C@@H](CCN)C(=O)NCCCCCCCCCCC(=O)O)NC(=O)[C@H]([C@@H](C)O)NC(=O)[C@H](C(C)C)NC(=O)[C@H](CC3CCCCC3)NC(=O)[C@H](CCN)NC(=O)[C@@H](CC(C)C)NC(=O)[C@H](CCCN)NC(=O)[C@H](CCCNC(N)=O)NC(=O)[C@H](Cc3ccc(-c4ccccc4)cc3)NC(=O)[C@H](C(C)C)NC2=O)c1 [Compound 2825] ({CH2CO}-FY(Carboxymethyl)D[Phe(3-Me)]V[Bip][Cit][Orn][dL][Dab][Cha]VTC[Dab][Aun]-OH; thioether N-14) | 6.70 |
| Cc1cccc(C[C@@H]2NC(=O)[C@H](CC(=O)O)NC(=O)[C@H](Cc3ccc(OCC(=O)O)cc3)NC(=O)[C@H](Cc3ccc(O)cc3)NC(=O)CSC[C@@H](C(=O)N[C@@H](CCN)C(=O)NCCCCCCCCCCC(=O)O)NC(=O)[C@H]([C@@H](C)O)NC(=O)[C@H](C(C)C)NC(=O)[C@H](CC3CCCCC3)NC(=O)[C@H](CCN)NC(=O)[C@@H](CC(C)C)NC(=O)[C@H](CCCN)NC(=O)[C@H](CCCNC(N)=O)NC(=O)[C@H](Cc3ccc(-c4ccccc4)cc3)NC(=O)[C@H](C(C)C)NC2=O)c1 [Compound 2826] ({CH2CO}-YY(Carboxymethyl)D[Phe(3-Me)]V[Bip][Cit][Orn][dL][Dab][Cha]VTC[Dab][Aun]-OH; thioether N-14) | 7.21 |
| Cc1cccc(C[C@@H]2NC(=O)[C@H](CC(=O)O)NC(=O)[C@H](Cc3ccc(OCC(=O)O)cc3)NC(=O)[C@H](Cc3ccc(C(N)=O)cc3)NC(=O)CSC[C@@H](C(=O)N[C@@H](CCN)C(=O)NCCCCCCCCCCC(=O)O)NC(=O)[C@H]([C@@H](C)O)NC(=O)[C@H](C(C)C)NC(=O)[C@H](CC3CCCCC3)NC(=O)[C@H](CCN)NC(=O)[C@@H](CC(C)C)NC(=O)[C@H](CCCN)NC(=O)[C@H](CCCNC(N)=O)NC(=O)[C@H](Cc3ccc(-c4ccccc4)cc3)NC(=O)[C@H](C(C)C)NC2=O)c1 [Compound 2827] ({CH2CO}-[Phe(4-CONH2)]Y(Carboxymethyl)D[Phe(3-Me)]V[Bip][Cit][Orn][dL][Dab][Cha]VTC[Dab][Aun]-OH; thioether N-14) | 7.88 |
| Cc1cccc(C[C@@H]2NC(=O)[C@H](CC(=O)O)NC(=O)[C@H](Cc3ccc(OCC(=O)O)cc3)NC(=O)[C@H](Cc3ccc(OCC(=O)O)cc3)NC(=O)CSC[C@@H](C(=O)N[C@@H](CCN)C(=O)NCCCCCCCCCCC(=O)O)NC(=O)[C@H]([C@@H](C)O)NC(=O)[C@H](C(C)C)NC(=O)[C@H](CC3CCCCC3)NC(=O)[C@H](CCN)NC(=O)[C@@H](CC(C)C)NC(=O)[C@H](CCCN)NC(=O)[C@H](CCCNC(N)=O)NC(=O)[C@H](Cc3ccc(-c4ccccc4)cc3)NC(=O)[C@H](C(C)C)NC2=O)c1 [Compound 2828] ({CH2CO}-Y(Carboxymethyl)Y(Carboxymethyl)D[Phe(3-Me)]V[Bip][Cit][Orn][dL][Dab][Cha]VTC[Dab][Aun]-OH; thioether N-14) | 7.11 |
| Cc1cccc(C[C@@H]2NC(=O)[C@H](CC(=O)O)NC(=O)[C@H](Cc3ccc(OCC(=O)O)cc3)NC(=O)[C@H](Cc3ccc(C(=O)O)cc3)NC(=O)CSC[C@@H](C(=O)N[C@@H](CCN)C(=O)NCCCCCCCCCCC(=O)O)NC(=O)[C@H]([C@@H](C)O)NC(=O)[C@H](C(C)C)NC(=O)[C@H](CC3CCCCC3)NC(=O)[C@H](CCN)NC(=O)[C@@H](CC(C)C)NC(=O)[C@H](CCCN)NC(=O)[C@H](CCCNC(N)=O)NC(=O)[C@H](Cc3ccc(-c4ccccc4)cc3)NC(=O)[C@H](C(C)C)NC2=O)c1 [Compound 2829] ({CH2CO}-[Phe(4-COOH)]Y(Carboxymethyl)D[Phe(3-Me)]V[Bip][Cit][Orn][dL][Dab][Cha]VTC[Dab][Aun]-OH; thioether N-14) | 6.79 |
| Cc1cccc(C[C@@H]2NC(=O)[C@H](CC(=O)O)NC(=O)[C@H](Cc3ccc(OCC(=O)O)cc3)NC(=O)[C@H](CCC(N)=O)NC(=O)CSC[C@@H](C(=O)N[C@@H](CCN)C(=O)NCCCCCCCCCCC(=O)O)NC(=O)[C@H]([C@@H](C)O)NC(=O)[C@H](C(C)C)NC(=O)[C@H](CC3CCCCC3)NC(=O)[C@H](CCN)NC(=O)[C@@H](CC(C)C)NC(=O)[C@H](CCCN)NC(=O)[C@H](CCCNC(N)=O)NC(=O)[C@H](Cc3ccc(-c4ccccc4)cc3)NC(=O)[C@H](C(C)C)NC2=O)c1 [Compound 2830] ({CH2CO}-QY(Carboxymethyl)D[Phe(3-Me)]V[Bip][Cit][Orn][dL][Dab][Cha]VTC[Dab][Aun]-OH; thioether N-14) | 7.59 |
| Cc1cccc(C[C@@H]2NC(=O)[C@H](CC(=O)O)NC(=O)[C@H](Cc3ccc(OCC(=O)O)cc3)NC(=O)[C@H](Cc3ccncc3)NC(=O)CSC[C@@H](C(=O)N[C@@H](CCN)C(=O)NCCCCCCCCCCC(=O)O)NC(=O)[C@H]([C@@H](C)O)NC(=O)[C@H](C(C)C)NC(=O)[C@H](CC3CCCCC3)NC(=O)[C@H](CCN)NC(=O)[C@@H](CC(C)C)NC(=O)[C@H](CCCN)NC(=O)[C@H](CCCNC(N)=O)NC(=O)[C@H](Cc3ccc(-c4ccccc4)cc3)NC(=O)[C@H](C(C)C)NC2=O)c1 [Compound 2831] ({CH2CO}-[4Pal]Y(Carboxymethyl)D[Phe(3-Me)]V[Bip][Cit][Orn][dL][Dab][Cha]VTC[Dab][Aun]-OH; thioether N-14) | 7.36 |
| Cc1cccc(C[C@@H]2NC(=O)[C@H](CC(=O)O)NC(=O)[C@H](Cc3ccc(OCC(=O)O)cc3)NC(=O)[C@H](Cc3cccnc3)NC(=O)CSC[C@@H](C(=O)N[C@@H](CCN)C(=O)NCCCCCCCCCCC(=O)O)NC(=O)[C@H]([C@@H](C)O)NC(=O)[C@H](C(C)C)NC(=O)[C@H](CC3CCCCC3)NC(=O)[C@H](CCN)NC(=O)[C@@H](CC(C)C)NC(=O)[C@H](CCCN)NC(=O)[C@H](CCCNC(N)=O)NC(=O)[C@H](Cc3ccc(-c4ccccc4)cc3)NC(=O)[C@H](C(C)C)NC2=O)c1 [Compound 2832] ({CH2CO}-[3Pal]Y(Carboxymethyl)D[Phe(3-Me)]V[Bip][Cit][Orn][dL][Dab][Cha]VTC[Dab][Aun]-OH; thioether N-14) | 7.32 |
